These results are taken from ChEMBL document CHEMBL1142250, “Discovery of azetidinone acids as conformationally-constrained dual PPARalpha/gamma agonists” (Bioorg Med Chem Lett, 2008).

In data set [1] the target is T1, Peroxisome proliferator-activated receptor alpha (Homo sapiens, UniProt Q07869).
T1 sequence (Q07869 whole entry): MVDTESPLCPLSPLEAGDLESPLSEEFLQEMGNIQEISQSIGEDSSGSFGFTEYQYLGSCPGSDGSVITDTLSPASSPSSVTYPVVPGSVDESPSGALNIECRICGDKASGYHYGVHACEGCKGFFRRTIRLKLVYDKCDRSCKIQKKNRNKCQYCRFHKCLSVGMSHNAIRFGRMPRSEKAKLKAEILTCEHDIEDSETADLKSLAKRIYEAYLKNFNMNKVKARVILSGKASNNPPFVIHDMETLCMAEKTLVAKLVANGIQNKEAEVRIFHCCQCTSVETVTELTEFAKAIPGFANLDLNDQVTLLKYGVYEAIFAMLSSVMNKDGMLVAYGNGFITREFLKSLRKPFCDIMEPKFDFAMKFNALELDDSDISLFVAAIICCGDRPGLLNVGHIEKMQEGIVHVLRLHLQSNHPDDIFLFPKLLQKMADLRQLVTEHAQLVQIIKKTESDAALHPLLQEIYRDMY
In words: Agonist activity at PPARalpha in HEK293 cells by GAL4 transactivation assay. It counts as functional, cell-based.

The target of data set [2] is T1, Peroxisome proliferator-activated receptor alpha.
For data set [3], the target named is T2, Peroxisome proliferator-activated receptor alpha (Homo sapiens) (UniProt Q07869).
T2 sequence (whole entry): T1 sequence (Q07869 whole entry)
In words: Agonist activity at PPARalpha in HEK293 cells at 1 uM by GAL4 transactivation assay relative to GW-2331. In kind it is functional, cell-based.

The target of data set [4] is T3, Peroxisome proliferator-activated receptor gamma (Homo sapiens, UniProt P37231).
T3 sequence (P37231 whole entry): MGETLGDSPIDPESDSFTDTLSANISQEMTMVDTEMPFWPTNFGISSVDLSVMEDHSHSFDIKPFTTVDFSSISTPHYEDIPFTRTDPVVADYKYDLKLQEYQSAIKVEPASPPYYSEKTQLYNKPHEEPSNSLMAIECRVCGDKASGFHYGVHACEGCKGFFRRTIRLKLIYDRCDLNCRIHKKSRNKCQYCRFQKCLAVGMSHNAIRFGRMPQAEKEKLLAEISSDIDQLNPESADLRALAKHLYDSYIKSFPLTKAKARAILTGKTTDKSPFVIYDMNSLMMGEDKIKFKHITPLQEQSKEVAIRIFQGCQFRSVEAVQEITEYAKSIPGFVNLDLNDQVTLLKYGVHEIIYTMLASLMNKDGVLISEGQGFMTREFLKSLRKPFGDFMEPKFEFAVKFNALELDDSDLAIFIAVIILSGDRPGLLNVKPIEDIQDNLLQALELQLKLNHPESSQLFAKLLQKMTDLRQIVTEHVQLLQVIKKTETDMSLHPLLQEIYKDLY
In words: Inhibition of PPARgamma.

The target of data set [5] is T3, Peroxisome proliferator-activated receptor gamma.
Description: Agonist activity at PPARgamma in HEK293 cells by GAL4 transactivation assay
For data set [6], the target named is T4, Cytochrome P450 3A4 (Homo sapiens, UniProt P08684). In words: Inhibition of CYP3A4 in presence of 7-benzyloxyresorufin substrate. In kind it is ADME.
Data set [7] concerns the target T4, Cytochrome P450 3A4. In words: Inhibition of CYP3A4 in presence of 7-benzyloxy-4-trifluoromethyl coumarin substrate. It counts as ADME.
Data set [8] concerns the target Cytochrome P450 2C9 (Homo sapiens, UniProt P11712). In words: Inhibition of CYP2C9. It counts as ADME.
Data set [9] is described as follows: Drug concentration in db/db mouse plasma at 10 mg/kg/day, po qd after 14 days. In kind it is ADME, organism-based. Further details: route oral.
Data set [10] deals with Mus musculus. Description: Decrease in plasma triglyceride level in db/db mouse at 10 mg/kg/day, po qd after 3 weeks. In kind it is functional. Further details: scale not given: the % may be the effect or the level left.
Data set [11] has as its system Liver. In words: Drug concentration in db/db mouse liver at 10 mg/kg/day, po qd after 14 days. It counts as ADME, organism-based. To be noted: in vivo, 336 h. The arrangement: route oral.
In data set [12] the test system is Mus musculus. Description: Decrease in plasma triglyceride level in db/db mouse at 10 mg/kg/day, po qd after 14 days. In kind it is functional. The arrangement: scale not given: the % may be the effect or the level left.
In data set [13] the test system is Mus musculus. Description: Decrease in plasma glucose level in db/db mouse at 10 mg/kg/day, po qd after 14 days. It counts as functional. The arrangement: scale not given: the % may be the effect or the level left.
Data set [14] has as its target Voltage-gated inwardly rectifying potassium channel KCNH2 (Homo sapiens, UniProt Q12809). In words: Inhibition of human ERG by FLIPR assay.
The target in data set [15] is Cytochrome P450 2C19 (Homo sapiens, UniProt P33261). Description: Inhibition of CYP2C19. It counts as ADME.
The test system of data set [16] is Adipose tissue. Description: Drug concentration in db/db mouse adipose at 10 mg/kg/day, po qd after 14 days. The conditions noted are these: in vivo, 336 h. Further details: route oral. It counts as ADME, organism-based.

Chain of Cytochrome P450 2C9 (P11712 whole entry): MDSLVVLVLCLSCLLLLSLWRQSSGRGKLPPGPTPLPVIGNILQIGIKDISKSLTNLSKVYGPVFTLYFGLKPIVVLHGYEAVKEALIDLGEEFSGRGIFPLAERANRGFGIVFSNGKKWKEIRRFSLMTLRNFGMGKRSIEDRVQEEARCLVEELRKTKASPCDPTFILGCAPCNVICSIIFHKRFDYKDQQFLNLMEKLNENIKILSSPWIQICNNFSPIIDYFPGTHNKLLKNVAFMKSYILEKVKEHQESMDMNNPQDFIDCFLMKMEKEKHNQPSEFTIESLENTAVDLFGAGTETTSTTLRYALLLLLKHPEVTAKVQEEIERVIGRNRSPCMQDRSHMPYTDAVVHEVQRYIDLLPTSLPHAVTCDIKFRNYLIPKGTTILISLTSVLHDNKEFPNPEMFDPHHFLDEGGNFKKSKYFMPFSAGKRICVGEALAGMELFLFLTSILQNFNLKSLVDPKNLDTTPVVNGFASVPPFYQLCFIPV
Chain of Cytochrome P450 2C19 (P33261 whole entry): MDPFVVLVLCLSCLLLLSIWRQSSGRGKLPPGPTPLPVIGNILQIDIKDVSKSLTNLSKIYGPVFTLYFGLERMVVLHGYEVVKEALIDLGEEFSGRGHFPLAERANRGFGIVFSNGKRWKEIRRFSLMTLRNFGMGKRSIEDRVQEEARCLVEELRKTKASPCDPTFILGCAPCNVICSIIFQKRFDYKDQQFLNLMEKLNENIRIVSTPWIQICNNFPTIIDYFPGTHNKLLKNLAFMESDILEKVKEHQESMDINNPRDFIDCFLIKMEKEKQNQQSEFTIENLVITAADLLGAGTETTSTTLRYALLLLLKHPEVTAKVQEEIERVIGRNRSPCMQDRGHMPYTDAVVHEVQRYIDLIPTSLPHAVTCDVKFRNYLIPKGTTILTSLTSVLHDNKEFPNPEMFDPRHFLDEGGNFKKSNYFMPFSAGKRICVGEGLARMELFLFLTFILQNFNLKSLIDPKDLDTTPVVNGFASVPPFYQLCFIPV
T4 sequence (P08684 whole entry): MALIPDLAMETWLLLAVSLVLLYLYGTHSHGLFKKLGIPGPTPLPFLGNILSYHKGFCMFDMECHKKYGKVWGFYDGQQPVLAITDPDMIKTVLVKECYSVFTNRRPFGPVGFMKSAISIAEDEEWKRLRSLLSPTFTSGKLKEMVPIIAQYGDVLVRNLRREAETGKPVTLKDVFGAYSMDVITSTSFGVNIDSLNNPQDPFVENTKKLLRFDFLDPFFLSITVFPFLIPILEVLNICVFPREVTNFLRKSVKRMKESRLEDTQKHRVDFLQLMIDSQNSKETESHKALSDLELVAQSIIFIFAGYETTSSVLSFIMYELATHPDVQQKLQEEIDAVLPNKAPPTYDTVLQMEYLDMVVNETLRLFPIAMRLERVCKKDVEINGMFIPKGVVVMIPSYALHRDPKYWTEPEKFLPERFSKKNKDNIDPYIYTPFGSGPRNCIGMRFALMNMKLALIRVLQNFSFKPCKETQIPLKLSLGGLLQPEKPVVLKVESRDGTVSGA
Chain of Voltage-gated inwardly rectifying potassium channel KCNH2 (Q12809 whole entry): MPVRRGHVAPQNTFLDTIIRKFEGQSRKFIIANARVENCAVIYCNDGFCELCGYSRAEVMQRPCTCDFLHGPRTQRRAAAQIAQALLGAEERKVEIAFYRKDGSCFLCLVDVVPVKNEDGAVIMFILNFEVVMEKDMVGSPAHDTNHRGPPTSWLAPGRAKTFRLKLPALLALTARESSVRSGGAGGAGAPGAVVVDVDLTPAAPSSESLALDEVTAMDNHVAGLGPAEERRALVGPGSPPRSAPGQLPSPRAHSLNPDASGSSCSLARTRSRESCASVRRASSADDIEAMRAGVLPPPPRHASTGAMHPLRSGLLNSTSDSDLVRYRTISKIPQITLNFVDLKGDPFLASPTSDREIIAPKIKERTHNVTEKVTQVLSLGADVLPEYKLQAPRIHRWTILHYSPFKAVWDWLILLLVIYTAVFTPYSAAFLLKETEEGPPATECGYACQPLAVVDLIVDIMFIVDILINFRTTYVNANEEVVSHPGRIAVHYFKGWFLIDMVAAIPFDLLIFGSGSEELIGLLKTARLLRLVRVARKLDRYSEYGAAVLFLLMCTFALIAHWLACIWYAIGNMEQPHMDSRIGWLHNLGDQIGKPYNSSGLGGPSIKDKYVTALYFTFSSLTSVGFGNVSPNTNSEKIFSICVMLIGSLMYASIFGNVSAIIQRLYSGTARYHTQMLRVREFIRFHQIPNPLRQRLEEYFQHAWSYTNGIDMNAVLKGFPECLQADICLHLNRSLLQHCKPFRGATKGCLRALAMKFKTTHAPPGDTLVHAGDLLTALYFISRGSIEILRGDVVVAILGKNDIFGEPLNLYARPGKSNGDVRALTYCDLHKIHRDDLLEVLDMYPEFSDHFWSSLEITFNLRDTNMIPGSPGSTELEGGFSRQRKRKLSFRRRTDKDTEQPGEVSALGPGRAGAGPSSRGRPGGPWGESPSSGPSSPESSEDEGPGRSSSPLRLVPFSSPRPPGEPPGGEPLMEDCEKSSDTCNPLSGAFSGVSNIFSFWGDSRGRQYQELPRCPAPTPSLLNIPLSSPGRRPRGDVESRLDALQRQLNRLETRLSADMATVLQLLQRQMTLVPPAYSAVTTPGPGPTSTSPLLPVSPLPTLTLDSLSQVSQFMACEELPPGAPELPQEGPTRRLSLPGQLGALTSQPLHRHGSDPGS

As to `Cc1oc(-c2ccccc2)nc1CCOc1cccc(CC2C(=O)N(c3ccc(Cl)cc3)C2C(=O)O)c1` (racemic), the EC50 (usually the concentration at which the effect is half-maximal) in [1] worked out at 230 nM; in data set [5] it was 130 nM. The IC50 (as a rule, the midpoint of a concentration-inhibition curve) in [2] came to 1400 nM; in data set [4] it was 360 nM. In data set [3], this compound displayed an Intrinsic activity of more than 90%.

With `COc1ccc(-c2nc(CCOc3cccc(C[C@@H]4C(=O)N(c5ccc(C(C)(C)C)cc5)[C@@H]4C(=O)O)c3)c(C)o2)cc1`, the EC50 was found to be 8 nM in [1] and 40 nM in data set [5]. Moreover, the IC50 in [6] turned out to be 12000 nM; in data set [2] it was 460 nM; in [4], 220 nM. This compound also displayed an Intrinsic activity in data set [3] of more than 90%.

As to `Cc1oc(-c2ccccc2)nc1CCOc1cccc(C[C@H]2C(=O)N(c3ccc(C(C)(C)C)cc3)[C@H]2C(=O)O)c1`, the EC50 was 5400 nM in data set [1] and 410 nM in [5]. Besides, the IC50 is more than 15000 nM in data set [2], 20000 nM in data set [7], 800 nM in data set [4] and 670 nM in data set [8].

In the case of `COc1ccc(N2C(=O)C(Cc3cccc(OCCc4nc(-c5ccccc5)oc4C)c3)C2C(=O)O)cc1` (racemic), the values for the EC50 in [1] and in data set [5] were 140 nM and 180 nM, respectively. Moreover, the IC50 in [2] was determined as 690 nM; in data set [4] it was 160 nM. The compound also displayed an Intrinsic activity in data set [3] of more than 90%.

With `Cc1oc(-c2ccccc2)nc1CCOc1cccc(C[C@@H]2C(=O)N(c3ccc(C(C)(C)C)cc3)[C@@H]2C(=O)O)c1`, the concentration giving a half-maximal response (EC50) in data set [1] was determined as 40 nM; in data set [5] it was 120 nM. Moreover, the IC50 in [6] was found to be 19000 nM; in [2], 80 nM; in data set [7], 17000 nM; in [4], 40 nM; in data set [8], 230 nM. The same compound yielded a concentration at 336 h in [9] of 870 nM. Besides, the Activity in [10] is recorded as 61%; in data set [12] it was -52%; in data set [13], -17%. In addition, in data set [11], the Drug uptake was found to be 7.4 nmol/g.

In the case of `CCCCCCCN(CCc1ccc(O[C@@](C)(CC)C(=O)O)cc1)C(=O)Nc1ccc(F)cc1F`, the EC50 in data set [1] was 45 nM; in [5], 243 nM. Also, the figures for the IC50 in [2] and in data set [4] were 740 nM and 600 nM, respectively. This compound also registered an Intrinsic activity in [3] of more than 90%.

Consider `Cc1oc(-c2ccccc2)nc1CCOc1cccc(CC2C(=O)N(c3ccc(F)cc3)C2C(=O)O)c1` (racemic), for which the EC50 was 110 nM in data set [1] and 30 nM in [5]. The half-maximal inhibitory concentration (IC50) in data set [2] came to 2400 nM; in data set [4], 180 nM. For the same compound, the Intrinsic activity in data set [3] is more than 90%.

In the case of `COc1ccc(N2C(=O)[C@H](Cc3cccc(OCCc4nc(-c5ccccc5)oc4C)c3)[C@@H]2C(=O)O)cc1`, the values for the EC50 in data set [1] and in data set [5] were more than 7500 nM and 840 nM, respectively. Further, the IC50 in data set [2] was more than 15000 nM; in [4] it was 1100 nM.

As for `COc1ccc(N2C(=O)[C@@H](Cc3ccc(OCCc4nc(-c5ccccc5)oc4C)cc3)[C@H]2C(=O)O)cc1`, the EC50 turned out to be 150 nM in data set [1] and 20 nM in data set [5]. Besides, the IC50 in [6] worked out at 26000 nM; in data set [2], 730 nM; in data set [7], 33000 nM; in data set [4], 40 nM; in [14] it was 54000 nM; in data set [8], 14000 nM. In data set [3], this compound registered an Intrinsic activity of more than 90%.

Take `Cc1oc(-c2ccc(Cl)cc2)nc1CCOc1cccc(C[C@@H]2C(=O)N(c3ccc(C(C)(C)C)cc3)[C@@H]2C(=O)O)c1`: the EC50 was 5 nM in data set [1] and 60 nM in data set [5]. For the same compound, the IC50 was 2800 nM in data set [15]; 480 nM in data set [2]; 4700 nM in [7]; 670 nM in data set [4]; 410 nM in [8]. In data set [3], this compound showed an Intrinsic activity of more than 90%.

Take `COc1ccc(N2C(=O)C(Cc3cccc(OCCc4nc(-c5ccccc5)oc4C)c3)C2C(=O)O)cn1` (racemic): the figures for the EC50 in data set [1] and in data set [5] were 90 nM and 70 nM, respectively. The IC50 came out at 1300 nM in [2] and 230 nM in data set [4]. The same compound came in with an Intrinsic activity in [3] of more than 90%.

Take `COc1cccc(-c2nc(CCOc3cccc(C[C@@H]4C(=O)N(c5ccc(C(C)(C)C)cc5)[C@@H]4C(=O)O)c3)c(C)o2)c1`: the EC50 in data set [1] and in [5] was 40 nM each time. The IC50 in data set [6] turned out to be 19000 nM; in [15] it was 8300 nM; in data set [2] it was 520 nM; in [4], 110 nM; in data set [8], 650 nM. For the same compound, the Intrinsic activity in data set [3] was more than 90%.

As for `Cc1oc(-c2ccccc2)nc1CCOc1ccc(C[C@H]2C(=O)N(c3ccc(C(C)(C)C)cc3)[C@H]2C(=O)O)cc1`, the EC50 is 970 nM in [1] and 500 nM in data set [5]. Further, the IC50 is more than 40000 nM in data set [6]; more than 15000 nM in data set [2]; more than 40000 nM in [7]; 4240 nM in [4]; 3000 nM in data set [8].

For `COc1ccc(OC(=O)N(CC(=O)O)Cc2ccc(OCCc3nc(-c4ccccc4)oc3C)cc2)cc1` [MURAGLITAZAR], the Drug uptake in [16] turned out to be 3 nmol/g; in data set [11], 25 nmol/g. For the same compound, the concentration at 336 h in data set [9] turned out to be 103000 nM. For the same compound, the Activity in data set [12] is -33%; in data set [13], -54%.

On to `Cc1oc(-c2ccccc2)nc1CCOc1ccc(C[C@@H]2C(=O)N(c3ccc(C(C)(C)C)cc3)[C@@H]2C(=O)O)cc1`, for which the EC50 came to 10 nM in data set [1] and 4 nM in data set [5]. Also, the IC50 in data set [6] is 28000 nM; in data set [2] it was 790 nM; in data set [7], more than 40000 nM; in data set [4], 110 nM; in [8], 2300 nM. In data set [3], the Intrinsic activity was more than 90%.

For the compound `COc1ccc(N2C(=O)[C@@H](Cc3cccc(OCCc4nc(-c5ccccc5)oc4C)c3)[C@H]2C(=O)O)cc1`, the figures for the EC50 in data set [1] and in data set [5] were 70 nM and 90 nM, respectively. Further, the concentration for half-maximal inhibition (IC50) in data set [6] came to 830 nM; in data set [2], 360 nM; in data set [7], 50000 nM; in [4], 100 nM; in [8] it was 2200 nM. Further, the Drug uptake in [16] worked out at 0.29 nmol/g; in [11], 10.4 nmol/g. In data set [9], this compound had a concentration at 336 h of 2800 nM. The compound also came in with an Intrinsic activity in [3] of more than 90%. Further, the Activity is recorded as 0% in [12] and -43% in data set [13].

As to `COc1ccc(N2C(=O)[C@H](Cc3ccc(OCCc4nc(-c5ccccc5)oc4C)cc3)[C@@H]2C(=O)O)cc1`, the half-maximal effective concentration (EC50) in data set [1] was more than 7500 nM. For the same compound, the IC50 is more than 15000 nM in data set [2] and 3400 nM in [4].

For `Cc1oc(-c2cccc(Cl)c2)nc1CCOc1cccc(C[C@@H]2C(=O)N(c3ccc(C(C)(C)C)cc3)[C@@H]2C(=O)O)c1`, the EC50 is 60 nM in data set [1] and 100 nM in data set [5]. The IC50 in [6] worked out at 20000 nM; in data set [15] it was 5300 nM; in [2] it was 860 nM; in data set [4] it was 250 nM; in [8] it was 670 nM. This compound also registered an Intrinsic activity in data set [3] of more than 90%.
